Test results as given in BindingDB's records for doi:10.1021/jm501787c (Duquesne University, 2015).

Legend:
[1] = Binding affinity to human FRalpha expressed in Chinese hamster RT16 cells assessed as cell growth inhibition after 96 hrs by CellTiter-Blue assay
[2] = Binding affinity to human RFC expressed in Chinese hamster PC43-10 cells assessed as cell growth inhibition after 96 hrs by CellTiter-Blue assay
[3] = Binding affinity to human PCFT expressed in Chinese hamster R2/PCFT4 cells assessed as cell growth inhibition after 96 hrs by CellTiter-Blue assay

IC50 [1] [nM] | IC50 [2] [nM] | IC50 [3] [nM] | SMILES
> 1000 | > 1000 | > 1000 | Nc1nc2[nH]cc(Cc3ccc(C(=O)N[C@@H](CCC(=O)O)C(=O)O)s3)c2c(=O)[nH]1
550 | 60 | 80 | Nc1nc2[nH]cc(CCc3ccc(C(=O)N[C@@H](CCC(=O)O)C(=O)O)s3)c2c(=O)[nH]1
109 | 116 | 312 | Nc1nc2[nH]cc(CCCc3ccc(C(=O)N[C@@H](CCC(=O)O)C(=O)O)s3)c2c(=O)[nH]1
49 | 38 | 141 | Nc1nc2[nH]cc(CCCCc3ccc(C(=O)N[C@@H](CCC(=O)O)C(=O)O)s3)c2c(=O)[nH]1
46 | 243 | 57 | Nc1nc2[nH]cc(CCCCCc3ccc(C(=O)N[C@@H](CCC(=O)O)C(=O)O)s3)c2c(=O)[nH]1
> 1000 | > 1000 | > 1000 | Nc1nc2[nH]cc(CCCCCCc3ccc(C(=O)N[C@@H](CCC(=O)O)C(=O)O)s3)c2c(=O)[nH]1
1.8 | > 1000 | – | Nc1nc2[nH]c(CCCCc3ccc(C(=O)N[C@@H](CCC(=O)O)C(=O)O)s3)cc2c(=O)[nH]1 [(S)-2-({5-[4-(2-Amino-4-oxo-4,7-dihydro-3H-pyrrolo[2,3-d]-pyrimidin-6-yl)-butyl]-thiophene-2-carbonyl}-amino)-pentanedioicAcid]
